Source: article PMC4210216, “Isolation, Purification and Molecular Mechanism of a Peanut Protein-Derived ACE-Inhibitory Peptide” (PLoS ONE, 2014)
No end group written: not given here.

Tests used:
ACE = system: ACE; set-up: method as in 3 sources, ref 52 = [52]; PMID 19886677; doi:10.1021/jf901787e; 52 Guang C , Phillips RD ( 2009 ) Purification, activity and sequence of angiotensin I converting enzyme inhibitory peptide from alcalase hydrolysate of peanut flour . Journal of agricultural and food ||| ref 43 = [43]; PMID 16680798; doi:10.1002/psc.758; 43 Li GH , Wan JZ , Le GW , Shi YH ( 2006 ) Novel angiotensin I-converting enzyme inhibitory peptides isolated from Alcalase hydrolysate of mung bean protein . Journal of Peptide Science 12 : 509 – 51 ||| ref 45 = [45]; 45 Li GH , Le GW , Shi YH , Shrestha S ( 2004 ) Angiotensin I–converting enzyme inhibitory peptides derived from food proteins and their physiological and pharmacological effects . Nutrition Research; details: cited from earlier work; for mode of ACE inhibition: from human serum trypsin hydrolysate
[1] = system: spontaneously hypertensive rats (SHRs); test: Long-term antihypertensive activity in SHRs (28 days, SBP); type: in vivo, rat; details: male SHR, captopril 40 mg/kg BW
Description: The in vivo tests for antihypertensive activity of peanut peptide was conducted using a previous method, and whole tests were conducted in Chinese Medicine Experiment Center of Hubei College of Traditional Chinese Medicine, authorized by SATCM (State Administration of Traditional Chinese Medicine, China). The male spontaneously hypertensive rats (SHRs) was used for the experimental model while the average weight of each rat was between 210 and 240 g and four rats were numbered as one group for feeding. These rats had free access to food and drink in their cages located in a 25°C room temperature with 12 h of light cycle. After 1 week for adaptation to this environment, the determination of blood pressure was conducted and the comparison of different group was investigated. The SHRs were randomly divided into five groups, named blank control group, low-dose group (100 mg/kg body weight (BW)), intermediate-dose group (500 mg/kg BW), high-dose group (1000 mg/kg BW) and drug control group (40 mg Captopril/kg BW).
Long-term antihypertensive activity: Through the same method of sample preparation, these SHRs were feeded at the same time (9∶00 am–10∶00 am) of each day and the feeding continued for 28 days. […] Each SHR was measured for three times. […]

[2] = biological target: T1, ACE (protease from rabbit lung) (Oryctolagus cuniculus, UniProt P12822); test: ACE inhibiting activity (in vitro tests), HHL substrate, HPLC; type: biochemical; details: HEPES pH 8.3, 37°C, 30 min
T1 construct: ACE (protease from rabbit lung); purchased Sigma Chemical Co., St. Louis, MO, USA; host or cells: rabbit lung (tissue-derived)
T1 sequence (P12822 34-1310): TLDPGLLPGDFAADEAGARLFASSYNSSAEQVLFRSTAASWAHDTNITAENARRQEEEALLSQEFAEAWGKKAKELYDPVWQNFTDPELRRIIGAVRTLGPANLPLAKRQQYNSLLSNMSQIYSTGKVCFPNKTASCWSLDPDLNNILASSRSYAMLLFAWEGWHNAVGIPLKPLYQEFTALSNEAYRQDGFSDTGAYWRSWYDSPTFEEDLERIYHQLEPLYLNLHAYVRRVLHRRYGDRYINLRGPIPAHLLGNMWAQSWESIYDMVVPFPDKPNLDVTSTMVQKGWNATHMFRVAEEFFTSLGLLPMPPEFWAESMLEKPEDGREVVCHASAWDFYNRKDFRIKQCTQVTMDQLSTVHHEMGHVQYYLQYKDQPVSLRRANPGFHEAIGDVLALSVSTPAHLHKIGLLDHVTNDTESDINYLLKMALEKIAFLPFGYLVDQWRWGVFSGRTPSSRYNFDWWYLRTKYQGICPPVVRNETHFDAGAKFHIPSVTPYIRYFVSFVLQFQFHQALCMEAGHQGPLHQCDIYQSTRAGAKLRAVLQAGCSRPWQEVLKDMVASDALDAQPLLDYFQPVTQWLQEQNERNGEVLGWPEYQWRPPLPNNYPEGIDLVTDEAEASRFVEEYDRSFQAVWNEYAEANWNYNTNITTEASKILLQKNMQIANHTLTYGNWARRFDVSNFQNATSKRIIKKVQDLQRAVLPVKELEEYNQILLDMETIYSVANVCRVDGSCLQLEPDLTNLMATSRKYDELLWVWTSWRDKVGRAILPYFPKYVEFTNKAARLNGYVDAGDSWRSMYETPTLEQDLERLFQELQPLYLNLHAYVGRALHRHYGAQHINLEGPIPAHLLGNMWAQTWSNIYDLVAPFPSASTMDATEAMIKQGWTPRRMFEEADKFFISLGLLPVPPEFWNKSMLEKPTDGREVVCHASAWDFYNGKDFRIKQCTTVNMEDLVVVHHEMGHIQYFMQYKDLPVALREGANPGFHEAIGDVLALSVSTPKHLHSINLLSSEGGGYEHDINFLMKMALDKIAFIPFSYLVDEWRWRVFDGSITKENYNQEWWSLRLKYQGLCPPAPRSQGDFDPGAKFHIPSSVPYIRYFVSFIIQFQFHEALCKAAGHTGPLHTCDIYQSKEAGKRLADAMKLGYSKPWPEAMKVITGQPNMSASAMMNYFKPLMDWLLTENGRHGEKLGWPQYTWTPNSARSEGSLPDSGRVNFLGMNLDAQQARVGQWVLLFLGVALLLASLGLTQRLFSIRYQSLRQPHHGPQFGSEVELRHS
Excerpt: PPI was purchased from Lanshan Group (Shandong, China). The following commercial enzymes were obtained: Alcalase (protease)-(Novo Industri A/S, Bagsvaerd, Denmark); N120P (protease)-(Kerry Co., Tralee, Ireland) and ACE (protease from rabbit lung)-(Sigma Chemical Co., St. Louis, MO, USA). Hippuryl-histidyl-leucine (HHL) was purchased from Sigma Chemical Co. (St. Louis, MO, USA). Methyl Cyanide (Merck & Co., Inc., Rahway, NJ, USA) and trifluoroacetic acid (TFA) (Fluka Co., Buchs, Switzerland) were purchased and were of chromatographic grade. All the other materials were of analytical grade and were used as received.
Determination of ACE inhibiting activity (in vitro tests)
ACE inhibiting activity was measured using Cushman and Cheung’s method with slight modification, [34]. Specifically, 20 µL of 4-hydroxyethylpiperazine ethane sulfonic acid (HEPEs) buffer solution (pH 8.3) was mixed with 20 µL sample solution in a 0.5 ml centrifuge tube. Then, 15 µL ACE solution was added into this tube and warmed at 37°C for 3 min. […]
The ACE inhibiting activity (%) was expressed in terms of hippuric acid content and was calculated using (1). […]
The dried peanut peptide powder having molecule weight below 1 kDa was first dissolved in water to make a peptide solution with 100 mg/ml concentration. […] The IC50 of each fraction was determined as in vitro tests.

In the case of Leu-Ile-Tyr, the “mode of ACE inhibition” value (ACE) is listed as “non-competitive”.
In the case of “Lys-Ala-Phe-Arg [peanut tetrapeptide of Guang and Phillips]”, the ACE inhibiting activity (ACE; peanut tetrapeptide) is listed as 16.9 µg/mL.
For VTPALR, the IC50 (ACE; from mung bean protein isolate using alcalase) is given as 82.4 µM.
In the case of YLYEIAR, the “mode of ACE inhibition” value (ACE) is listed as “non-competitive”.
For `C[C@H](CS)C(=O)N1CCC[C@H]1C(=O)O` [captopril], the “antihypertensive activity compared with peanut peptide, long term” value [1] was “stronger antihypertensive activity during the long term experiment”.
Compound “KLYMRP [Fraction P8, Lys-Leu-Tyr-Met-Arg-Pro]” has an IC50 ([2]; printed in parentheses beside the mg/mL value, read-out: IC50 (ACE inhibition)) of 6.42 µM and an inhibition at 100 µg/mL ([2]; peptide concentration 100 µg/ml, HPLC UV 228 nm) of 85.8%.
